These are literature values, as cited in US7432380B2, “Crystalline form of Fluvastatin sodium” (Ciba Specialty Chemicals Corp., priority 2003, dated 2008).

Structures are written as SMILES.

The conditions of the data set: relative air humidity of surrounding atmosphere; from WO-A-03/13512.

With `CC(C)n1c(/C=C/[C@H](O)C[C@H](O)CC(=O)[O-])c(-c2ccc(F)cc2)c2ccccc21.[Na+]` [Form F], the “air humidity of atmospheres in which the form is stable” value was “up to 90%”.
